The values below come from patent US20060111381A1, “Amidine compounds” (priority 2002, published 2006).

Series [1] deals with T1, human δ-opiate receptor (Homo sapiens, UniProt P41143).
T1 construct: purchased MDS Pharma Services 260110
Nature of the series: In vitro opiate receptor radioligand binding assay (MDS 260110). To be noted: test compound 10 μM, read-out: Percentage Inhibition of Radioligand Binding. As for the experimental part:
(§1) To characterise the target specificity of the compounds, KRS-6-41, KRS-6-48 and KRS-6-51 were tested at a concentration of 10 μM for their ability to inhibit the binding of a radioligand to human δ-, κ-, or μ-opiate receptors in vitro using commercially available assays (MDS Pharma Services; assay catalogue numbers 260110, 260210 and 260410 respectively).

The target in series [2] is T2, human κ-opiate receptor (Homo sapiens, UniProt P41145).
T2 construct: purchased MDS Pharma Services 260210
T2 sequence (P41145 whole entry): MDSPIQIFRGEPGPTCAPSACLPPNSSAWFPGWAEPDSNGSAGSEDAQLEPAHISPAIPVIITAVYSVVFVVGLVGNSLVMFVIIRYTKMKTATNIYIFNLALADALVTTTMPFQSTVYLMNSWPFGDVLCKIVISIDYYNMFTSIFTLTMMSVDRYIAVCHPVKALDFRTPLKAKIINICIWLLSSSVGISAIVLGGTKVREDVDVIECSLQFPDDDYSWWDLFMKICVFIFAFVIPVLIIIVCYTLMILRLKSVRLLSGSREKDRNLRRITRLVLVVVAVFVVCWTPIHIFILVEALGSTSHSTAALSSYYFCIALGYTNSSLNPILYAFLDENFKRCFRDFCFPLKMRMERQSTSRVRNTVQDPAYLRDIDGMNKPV
Nature of the series: In vitro opiate receptor radioligand binding assay (MDS 260210). To be noted: test compound 10 μM, read-out: Percentage Inhibition of Radioligand Binding. As for the experimental part:
as §1

The subject of series [3] is ICR mice. Nature of the series: Straub tail behaviour (indicator of CNS activity) in writhing-study mice. To be noted: for Straub tail behaviour: any doses (1 to 128 mg/kg IP). For orientation: In writhing tests, fewer writhes than in controls are read as antinociception.
Series [4] concerns the target T3, human μ-opiate receptor (Homo sapiens, UniProt P35372).
T3 construct: purchased MDS Pharma Services 260410
Nature of the series: In vitro opiate receptor radioligand binding assay (MDS 260410). To be noted: test compound 10 μM, read-out: Percentage Inhibition of Radioligand Binding. As for the experimental part:
as §1

Series [5] has as its system ICR mice. The experiment in a line: Phenylquinone-induced writhing model in mice (writhes counted in following 5-10 minute period). In kind it is in vivo. To be noted: for No. of Writhings, Individual: individual mice; for % Inhibition: relative to vehicle group. As for the experimental part: (§2) Testing on compound KRS-6-48 was carried out under contract by MDS Services—Taiwan Ltd. KRS-6-48 was evaluated for possible analgesic activity in the phenylquinone-induced writhing model in mice (Siegmund et al, 1957). A serial 2-fold dosage variance was used in the test, from 128 mg/kg to 1 mg/kg (8 doses in total). Groups of 3 male or female ICR mice weighing 22±2 g were employed. Variant doses (1, 2, 4, 8, 16, 32, 64 and 128 mg/kg) of test substances were administered intraperitoneally (IP). A vehicle of 2% Tween 80 in 0.9% NaCl was used for the intraperitoneal injection. The control group received vehicle alone. […] A reduction in the number of writhes by 50 percent or more (≧50%) relative to the vehicle-treated group indicated possible analgesic activity.
Testing on compounds KRS-6-41, KRS-6-51, and KRS-6-71 was also carried out under contract by MDS Services—Taiwan Ltd. The study was designed to evaluate the effects of the compounds as analgesics in the phenylquinone-induced writhing assay described in detail in Example 10 (Siegmund et al, 1957).
(§3) In each case, a serial 2-fold dosage variance was used in the test, from 128 mg/kg to 1 mg/kg (8 doses in total). Groups of 3 male or female ICR mice weighing 22±2 g were employed. Variant doses (1, 2, 4, 8, 16, 32, 64 and 128 mg/kg) of test substances were administered intraperitoneally (IP). A vehicle of 2% Tween 80 in 0.9% NaCl was used for the intraperitoneal injection. The control group received vehicle alone. […] A reduction in the number of writhes by 50 percent or more (≧50%) relative to the vehicle-treated group indicated possible analgesic activity.

Series [6] concerns ICR mice. Nature of the series: Deaths and adverse signs observed in writhing-study mice. In kind it is in vivo. As for the experimental part:
as §2, §3

In series [7] the test system is ICR mice. Nature of the series: Phenylquinone-induced writhing model in mice, KRS-6-98 study (writhes counted in following 10-15 minute period). To be noted: for Number of Writhings, Average / Number of Writhings, Individual / % Inhibition: 10-15 minute period; for Number of Writhings, Individual: individual mice; for % Inhibition: relative to vehicle group. The series is classed as in vivo. As for the experimental part: Testing of compound KRS-6-98 was carried out under contract by MDS Pharma Services—Taiwan. The study was essentially the same as that set out in Examples 12 and 13, and was designed to evaluate the effect of the compound as an analgesic in the phenylquinone-induced writhing assay described in detail in Example 10 (Siegmund et al, 1957).
A serial two-fold dosage variance was used in the test, from 128 mg/kg to 1 mg/kg (8 doses in total). Twenty six groups of 3 male or female ICR mice weighing 22±2 g were employed. The variant doses of the test substance were administered intraperitoneally (IP). A vehicle of 2% Tween 80 in 0.9% NaCl was used for the intraperitoneal injection. The control group received the vehicle alone. […] A reduction of the number of writhes by 50% or more (≧50%) relative to the vehicle-treated group indicate a possible analgesic activity.

A word on the inhibition: it is the drop in the measured response relative to a control, in per cent. What is called % Inhibition is the drop in the measured response relative to a control, in per cent.

“And” between values parts separate entries of the source, which are not always exact repeats. Identical values can stand only once.

T3 sequence (P35372 whole entry): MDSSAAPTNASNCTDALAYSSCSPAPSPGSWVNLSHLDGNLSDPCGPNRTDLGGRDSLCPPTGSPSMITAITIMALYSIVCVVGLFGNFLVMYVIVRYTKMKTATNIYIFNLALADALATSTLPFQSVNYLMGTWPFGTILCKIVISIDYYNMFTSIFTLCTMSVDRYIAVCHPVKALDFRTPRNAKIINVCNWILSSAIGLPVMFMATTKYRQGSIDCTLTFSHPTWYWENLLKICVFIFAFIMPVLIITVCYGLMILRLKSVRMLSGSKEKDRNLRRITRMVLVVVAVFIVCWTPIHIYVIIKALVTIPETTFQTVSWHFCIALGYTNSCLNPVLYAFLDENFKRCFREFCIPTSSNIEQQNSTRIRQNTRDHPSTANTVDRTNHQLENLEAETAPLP
T1 sequence (P41143 whole entry): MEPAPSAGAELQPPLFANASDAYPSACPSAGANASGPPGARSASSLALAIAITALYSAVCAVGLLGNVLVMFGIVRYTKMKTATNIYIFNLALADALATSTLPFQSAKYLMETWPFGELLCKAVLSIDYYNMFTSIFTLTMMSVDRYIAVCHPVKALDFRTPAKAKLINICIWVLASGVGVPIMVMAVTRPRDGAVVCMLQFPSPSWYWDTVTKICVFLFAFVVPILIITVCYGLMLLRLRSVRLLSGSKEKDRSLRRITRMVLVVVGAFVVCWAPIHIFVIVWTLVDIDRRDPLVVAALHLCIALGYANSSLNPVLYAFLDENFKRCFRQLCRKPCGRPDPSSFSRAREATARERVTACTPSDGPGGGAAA

Take `CCC(=Nc1ccccc1)NCCCN1CC[C@]23c4c5ccc(O)c4O[C@H]2[C@@H](O)C=CC3[C@H]1C5` (stereo partly drawn) [KRS-6-48, (5α,6α)-7,8-didehydro-4,5-epoxy-17-((N-phenylpropionamidino)-propyl)morphinan, 3,6-diol]: the inhibition at 10 µM in series [1] turned out to be 29%; in series [2], 48%; in series [4], 97%. The Straub tail behaviour result in series [3] is reported as “did not exhibit Straub tail behaviour”. The “No. of Writhings, Average” value in series [5] (1 mg/kg IP) turned out to be 14; in series [5] (2 mg/kg IP), 13; in series [5] (4 mg/kg IP), 9; in series [5] (8 mg/kg IP), 7; in series [5] (16 mg/kg IP), 6; in series [5] (32 mg/kg IP) it was 1. In addition, the “No. of Writhings, Average” value in series [5] (64 mg/kg IP) and in series [5] (128 mg/kg IP) was 0 in each case. The “No. of Writhings, Individual” value was 10 and 20 and 13 in series [5] (1 mg/kg IP); 8 and 20 and 10 in series [5] (2 mg/kg IP); 10 and 8 and 9 in series [5] (4 mg/kg IP); 12 and 4 and 5 in series [5] (8 mg/kg IP); 1 and 13 and 4 in series [5] (16 mg/kg IP); 0 and 1 (2×) in series [5] (32 mg/kg IP). The “No. of Writhings, Individual” value in series [5] (64 mg/kg IP) and in series [5] (128 mg/kg IP) was 0 in each case. For the same molecule, the “% Inhibition” value in series [5] (1 mg/kg IP) stood at 0%; in series [5] (2 mg/kg IP) it was 0%; in series [5] (4 mg/kg IP), 31%; in series [5] (8 mg/kg IP), 46%; in series [5] (16 mg/kg IP) it was 54%; in series [5] (32 mg/kg IP) it was 92%. Further, the “% Inhibition” value in series [5] (64 mg/kg IP) and in series [5] (128 mg/kg IP) was 100% throughout. In series [5] (at doses of 128, 64, 32 and 16 mg/kg IP), the “analgesic activity in writhing model (in words)” value was “Very significant activity”.

On to `CC(=N)NCCCN1CC[C@]23c4c5ccc(O)c4O[C@H]2[C@@H](O)C=CC3[C@H]1C5` (stereo partly drawn) [KRS-6-41, (5α,6α)-7,8-didehydro-4,5-epoxy-17-(3-acetamidinopropyl)morphinan, 3,6-diol], for which the inhibition at 10 µM was found to be 68% in series [1], 58% in series [2] and 97% in series [4]. The test animals died in series [6] (64 mg/kg IP) is 1 of 3; in series [6] (128 mg/kg IP), 3 of 3. In series [3], the Straub tail behaviour result was “None exhibited Straub tail behaviour”. Also, the “No. of Writhings, Average” value in series [5] (1 mg/kg IP) turned out to be 14; in series [5] (2 mg/kg IP), 14; in series [5] (4 mg/kg IP), 12; in series [5] (8 mg/kg IP), 10; in series [5] (16 mg/kg IP), 9; in series [5] (32 mg/kg IP) it was 8. Further, the “No. of Writhings, Individual” value in series [5] (1 mg/kg IP) is 12 and 15 and 14; in series [5] (2 mg/kg IP) it was 14 and 6 and 22; in series [5] (4 mg/kg IP), 14 and 8 and 15; in series [5] (8 mg/kg IP), 6 and 10 and 14; in series [5] (16 mg/kg IP), 5 and 16 and 6; in series [5] (32 mg/kg IP), 4 and 10 and 11. The “No. of Writhings, Individual” value in series [5] (64 mg/kg IP) is 4 and 14 and died; in series [5] (128 mg/kg IP), “died”. The “% Inhibition” value was determined as 0% in series [5] (1 mg/kg IP); 0% in series [5] (2 mg/kg IP); 8% in series [5] (4 mg/kg IP); 23% in series [5] (8 mg/kg IP); 31% in series [5] (16 mg/kg IP); 38% in series [5] (32 mg/kg IP). The “inhibition of writhing (in words)” value in series [5] (at doses of 32, 16, 8 and 4 mg/kg IP) was “a moderate level of inhibition of writhing”.

With `CN1CC[C@]23c4c5ccc(O)c4O[C@H]2[C@@H](O)C=C[C@H]3[C@H]1C5` [Morphine, reference compound], in series [3] (3 mg/kg IP), the “test animals exhibiting Straub tail phenomenon” value is 2 of 3. Moreover, in series [5] (3 mg/kg IP), the “No. of Writhings, Average” value is given as 0; the “No. of Writhings, Individual” value was found to be 0; the “% Inhibition” value came to 100%.

With `CCC(=Nc1ccc(F)cc1)NCCCN1CC[C@]23c4c5ccc(O)c4O[C@H]2[C@@H](O)C=C[C@H]3[C@H]1C5` [KRS-6-98], the “Number of Writhings, Average” value in series [7] (1 mg/kg IP) is recorded as 10; in series [7] (2 mg/kg IP) it was 7; in series [7] (4 mg/kg IP), 7; in series [7] (8 mg/kg IP), 5; in series [7] (16 mg/kg IP), 4; in series [7] (32 mg/kg IP), 0. Further, the “Number of Writhings, Average” value in series [7] (64 mg/kg IP) and in series [7] (128 mg/kg IP) was 0 each time. Also, the “Number of Writhings, Individual” value in series [7] (1 mg/kg IP) was 12 and 10 and 8; in series [7] (2 mg/kg IP), 7 (2×) and 6; in series [7] (4 mg/kg IP), 10 and 7 and 4; in series [7] (8 mg/kg IP), 6 and 7 and 2; in series [7] (16 mg/kg IP), 3 and 6 and 4; in series [7] (32 mg/kg IP) it was 0. Besides, the “Number of Writhings, Individual” value in series [7] (64 mg/kg IP) and in series [7] (128 mg/kg IP) was 0 each time. Moreover, the “% Inhibition” value in series [7] (1 mg/kg IP) is 44%; in series [7] (2 mg/kg IP), 61%; in series [7] (4 mg/kg IP), 61%; in series [7] (8 mg/kg IP), 72%; in series [7] (16 mg/kg IP), 78%; in series [7] (32 mg/kg IP), 100%. Further, the “% Inhibition” value in series [7] (64 mg/kg IP) and in series [7] (128 mg/kg IP) was 100% throughout. Besides, the “analgesic activity in writhing model (in words)” value in series [7] (at all dose levels from 128 down to 2 mg/kg IP) is “significant activity”.
